In patent publication US11046651B2, “Piperazine substituted azapine derivatives and uses thereof” (Alairion, Inc., priority 2019, dated 2021):
pKi: −log10 of the molar value.

Key:
5-HT2C = 5-HT2C (Homo sapiens (Human), UniProt P28335); test: 5-HT2C binding assay ([3H]-Mesulergine, HEK293 membranes); conditions: numeric values
Experimental: 5-HT2C Binding Assay Protocol
The testing compounds were diluted with DMSO, starting at 2 mM, with 8-points and 5-fold serial dilutions.
1 μL of a compound of the present disclosure the reference compound (Table J) was transferred to an assay plate. […] 1 μL of DMSO was transferred to an assay plate according to the plate map for total binding (High control: HC).
(§1) Unifilter-96 GF/C filter plates were soaked with 50 μL of 0.3% PEI per well for about 0.5 hours at room temperature. When the binding assays were complete, the reaction mixture was filtered through the GF/C filter plates using Perkin Elmer Filtermate Harvester, and each plate was washed 4 times with cold wash buffer. The filter plates were dried for 1 hour at 50° C. After drying, the bottom of the filter plate wells were sealed using Perkin Elmer Unifilter-96 backing seal tape. 50 μL of Perkin Elmer Microscint 20 cocktail was added. The top of the filter plates were sealed with Perkin Elmer TopSeal-A sealing film.
^3H trapped on filters were counted using Perkin Elmer MicroBeta2 Reader. Inhibition constants were calculated using the following equation:
[formula] The data was analyzed using Prism 5. The model used was “log(inhibitor) vs. response—Variable slope” to fit the data and calculate IC50. The IC50 was then converted to Ki using the following equation: Ki=IC50/(1+L/Kd), wherein L is the radioligand concentration in the reaction system; Kd is the affinity of radioligand to the receptor.

D2 = D2 (Homo sapiens (Human), UniProt P14416); test: D2 binding assay ([3H] 7-OH-DPAT, HEK293 D2L membranes); conditions: numeric values
Sequence of D2 (P14416 whole entry): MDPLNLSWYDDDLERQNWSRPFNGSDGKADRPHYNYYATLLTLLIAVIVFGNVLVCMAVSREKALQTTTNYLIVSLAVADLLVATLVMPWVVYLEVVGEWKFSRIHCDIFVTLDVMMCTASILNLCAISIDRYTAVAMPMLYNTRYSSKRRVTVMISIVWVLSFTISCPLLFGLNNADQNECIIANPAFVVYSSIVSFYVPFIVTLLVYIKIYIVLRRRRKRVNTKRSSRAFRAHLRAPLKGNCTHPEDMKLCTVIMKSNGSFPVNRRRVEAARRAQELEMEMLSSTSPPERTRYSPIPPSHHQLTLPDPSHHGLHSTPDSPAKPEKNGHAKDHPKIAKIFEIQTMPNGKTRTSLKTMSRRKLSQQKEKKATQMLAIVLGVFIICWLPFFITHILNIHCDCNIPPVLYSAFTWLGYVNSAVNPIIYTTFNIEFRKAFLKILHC
Experimental: D2 Binding Assay Protocol
The testing compounds were diluted with DMSO, starting at 2 mM, with 8-points and 5-fold serial dilutions. droperidol was diluted with DMSO, starting at 0.2 mM, with 8-points and 4-fold serial dilutions.
1 μL of a compound of the present disclosure and the reference compound (Table O) was transferred to an assay plate. 1 μL of droperidol was transferred to an assay plate according to the plate map for nonspecific binding (Low control: LC). 1 μL of DMSO was transferred to an assay plate according to the plate map for total binding (High control: HC). Following a plate map, 100 μL of the membrane stock solutions and radio ligand were added into the plate. The plates were sealed and shaken with 300 rpm.
as §1, with “the GF/B” for “the GF/C”
^3H trapped on filters were counted using Perkin Elmer MicroBeta2 Reader. Inhibition constants were calculated using the following equation: […]
The data was analyzed using Prism 5. The model used was “log(inhibitor) vs. response—Variable slope” to fit the data and calculate IC50. The IC50 was then converted to Ki using the following equation: Ki=IC50/(1+L/Kd), wherein L is the radioligand concentration in the reaction system; Kd is the affinity of radioligand to the receptor. As shown in Table Q Compound No. 7 has a lower affinity for D2 when compared to Compounds A-2, A-3, A-4, and A-5.

Sequence of 5-HT2C (P28335 33-458): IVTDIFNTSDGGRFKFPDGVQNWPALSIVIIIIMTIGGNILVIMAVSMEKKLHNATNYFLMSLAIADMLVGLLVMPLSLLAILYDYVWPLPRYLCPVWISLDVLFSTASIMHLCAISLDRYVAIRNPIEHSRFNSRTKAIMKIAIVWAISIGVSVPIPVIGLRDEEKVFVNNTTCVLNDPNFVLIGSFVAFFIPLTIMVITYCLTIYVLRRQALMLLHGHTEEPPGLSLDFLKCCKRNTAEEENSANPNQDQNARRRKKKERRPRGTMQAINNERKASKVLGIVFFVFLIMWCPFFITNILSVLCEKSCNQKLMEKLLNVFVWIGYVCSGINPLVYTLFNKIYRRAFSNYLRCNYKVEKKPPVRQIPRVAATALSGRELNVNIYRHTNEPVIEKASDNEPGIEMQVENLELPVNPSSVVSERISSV

`CC(C)(CN1CCN(C2=Nc3ccccc3Oc3ccccc32)CC1)C(=O)O` [A-5, 3-(4-(dibenzo[b,f][1,4]oxazepin-11-yl)piperazin-1-yl)-2,2-dimethylpropanoic acid, reference compound] showed a pKi (5-HT2C) of 6.17 and a pKi (D2) of 5.54.
